Patent publication US20260167623A1 (NIKANG THERAPEUTICS, INC., priority 2022, published 2026)

How the values were obtained:
CDK2 [1] = target: T1, CDK2 (Homo sapiens, UniProt P24941); test: Inhibition of CDK2: phospho-Rb (S807/811) HTRF measurement in OVCAR3 cells, 24 h; type: cell-based; details: 24 h compound treatment, read-out: pRB_OVCAR3_24h
T1 construct: High-Throughput Measurement of Cellular Endogenous CDK2; endogenous in cells; host or cells: OVCAR3
How it was run: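 OVCAR3 cells, seeded overnight, were exposed to compounds at 0.3 to 10,000 nM for 24 h, then lysed. Rb S807/811 phosphorylation read by HTRF (665/620 nm ratio) after 4 h detection at room temperature; data normalized to DMSO and IC50 from four-parameter logistic fit.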

CDK2 [2] = target: T1, CDK2; test: High-throughput HTRF measurement of cellular endogenous CDK2 level (degradation, DC50/Dmax) in OVCAR3 cells, 6 h; type: cell-based; details: 6 h compound treatment, HTRF total CDK2, read-out: DC50_OVCAR3_6h
Method: High-Throughput Measurement of Cellular Endogenous CDK2
Effects of compounds on cellular CDK2 level were monitored by a high-throughput HTRF assay.
To determine half maximal degradation concentration (DC50) and maximum degradation level (Dmax) values of compounds, cellular CDK2 level was measured in 96-well format using HTRF total CDK2 cellular kit (Cat #64CDK2TPEG) from Cisbio.
On Day 1, OVCAR3 cells were seeded into 96-well tissue-culture treated plates at 20,000 cells/well in 200 μL and incubated overnight at 37° C. in CO2 atmosphere. On Day 2 cells were treated with compounds at concentration ranging from 0.03 to 1,000 nM using HP D300 digital dispenser. 6 hours after compound treatment, cell culture media was removed by flicking the plate and tapping the plate against clean paper towel. Immediately 30 μL 1× lysis buffer was supplemented from the kit and added to each well and the plate is incubated at room temperature on shaker for 30 min. After homogenization by pipetting up and down, 8 μL cell lysate from 96-well cell culture plate was transferred to 384-well small volume white detection plate. 2 μL premixed detection solution was added and the plate is covered with sealer. To prepare the detection solution, d2 conjugated-CDK2 antibody and Eu-cryptate conjugated CDK2 antibody were diluted into detection buffer following manufacturer's instruction. Detection plates were incubated overnight at room temperature and read on ClarioStar (BMG Labtech) in TR-FRET mode (665 nM and 620 nM). The TR-FRET ratio (665 nM/620 nM) was plotted against the compound concentration and normalized to DMSO controls (0% degradation) and lysis buffer controls (100% degradation). Half maximal degradation concentration (DC 50) […] were calculated with a four-parameter logistic fit using GraphPad Prism (version 8; La Jolla, CA).
In the table below, AA indicates a DC50 of greater than or equal to 0.5 nM but less than 1 nM; A indicates a DC50 of greater than or equal to 1 nM but less than or equal to 10 nM; B indicates a DC50 of greater than 10 nM but less than or equal to 100 nM; C indicates a DC50 of greater than 100 nM but less than or equal to 1 μM; and D indicates a DC50 of greater than 1 μM […] but less than or equal to 5 μM. NT means not tested.

Row | SMILES | IC50 (CDK2 [1]) | DC50 (CDK2 [2])
1 | Cn1nc(N2CCC(=O)NC2=O)c2ccc(C3CCN(CC4CCN(c5cccc(S(=O)(=O)N6CCC(Nc7ncc(OC(F)(F)F)cn7)CC6)c5)CC4)CC3)cc21 [Example 115, 1-(1-methyl-6-(1-((1-(3-((4-((5-(trifluoro-methoxy)pyrimidin-2-yl)amino)piperidin-1-yl)sulfonyl)phenyl)piperidin-4-yl)methyl)piperidin-4-yl)-1H-indazol-3-yl)dihydropyrimidine-2,4(1H,3H)-dione] | 1 to 100 nM | 10 to 100 nM
2 | Cn1c(=O)n(C2CCC(=O)NC2=O)c2c(F)ccc(C3CCN(CC4CCN(c5cc(S(=O)(=O)N6CCC(Nc7ncc(Cl)cn7)CC6)ccc5C#N)CC4)CC3)c21 (stereo not shown) [Example 220, 4-((4-((5-chloropyrimidin-2-yl)amino)piperidin-1-yl)sulfonyl)-2-(4-((4-(1-(2,6-dioxopiperidin-3-yl)-7-fluoro-3-methyl-2-oxo-2,3-dihydro-1H-benzo[d]imidazol-4-yl)piperidin-1-yl)methyl)piperidin-1-yl)benzonitrile] | 1 to 100 nM | 10 to 100 nM
3 | Cn1c(=O)n(C2CCC(=O)NC2=O)c2ccc(C3CCN(CC4CCN(c5cc(S(=O)(=O)N6CCC(Nc7ncc(Cl)cn7)CC6)ccc5C#N)CC4)CC3)cc21 (stereo not shown) [Example 204, 4-((4-((5-chloropyrimidin-2-yl)amino)piperidin-1-yl)sulfonyl)-2-(4-((4-(1-(2,6-dioxopiperidin-3-yl)-3-methyl-2-oxo-2,3-dihydro-1H-benzo[d]imidazol-5-yl)piperidin-1-yl)methyl)piperidin-1-yl)benzonitrile] | 1 to 100 nM | 1 to 10 nM
4 | O=C1CCC(N2Cc3cc(N4CCN(Cc5cccc(S(=O)(=O)N6CCC(Nc7ncc(OC(F)F)cn7)CC6)c5)CC4)c(F)cc3C2=O)C(=O)N1 (stereo not shown) [Example 43, 3-(5-(4-(3-((4-((5-(difluoromethoxy)-pyrimidin-2-yl)amino)piperidin-1-yl)sulfonyl)benzyl)piperazin-1-yl)-6-fluoro-1-oxoisoindolin-2-yl)piperidine-2,6-dione] | 100 to 500 nM | 10 to 100 nM
5 | Cn1c(=O)n(C2CCC(=O)NC2=O)c2cccc(C3CCN(Cc4cc(F)cc(S(=O)(=O)N5CCC(Nc6ncc(OC(F)F)cn6)CC5)c4)CC3)c21 (stereo not shown) [Example 184, 3-(4-(1-(3-((4-((5-(difluoromethoxy)pyrimidin-2-yl)amino)piperidin-1-yl)sulfonyl)-5-fluorobenzyl)piperidin-4-yl)-3-methyl-2-oxo-2,3-dihydro-1H-benzo[d]imidazol-1-yl)piperidine-2,6-dione] | 1 to 100 nM | 1 to 10 nM
6 | Cn1nc(N2CCC(=O)NC2=O)c2ccc(C3CCN(CC4CCN(c5cc(S(=O)(=O)N6CCC(Nc7ncc(OC(F)F)cn7)CC6)ccc5C#N)CC4)CC3)c(F)c21 [Example 192, 4-((4-((5-(difluoromethoxy)pyrimidin-2-yl)amino)piperidin-1-yl)sulfonyl)-2-(4-((4-(3-(2,4-dioxotetrahydropyrimidin-1(2H)-yl)-7-fluoro-1-methyl-1H-indazol-6-yl)piperidin-1-yl)methyl)piperidin-1-yl)benzonitrile] | 1 to 100 nM | 1 to 10 nM
7 | Cn1nc(N2CCC(=O)NC2=O)c2ccc(N3CC4(CN(Cc5cccc(S(=O)(=O)N6CCC(Nc7ncc(C(F)(F)F)cn7)CC6)c5)C4)C3)cc21 [Example 4, 1-(1-methyl-6-(6-(3-((4-((5-(trifluoromethyl)pyrimidin-2-yl)amino)piperidin-1-yl)sulfonyl)benzyl)-2,6-diazaspiro[3.3]heptan-2-yl)-1H-indazol-3-yl)dihydropyrimidine-2,4(1H,3H)-dione] | 100 to 500 nM | –
8 | Cn1nc(N2CCC(=O)NC2=O)c2ccc(N3CC4CC(C3)N4CC3CCN(c4cccc(S(=O)(=O)N5CCC(Nc6ncc(Cl)cn6)CC5)c4)CC3)cc21 [Example 125, 1-(6-(6-((1-(3-((4-((5-chloropyrimidin-2-yl)amino)piperidin-1-yl)sulfonyl)phenyl)-piperidin-4-yl)methyl)-3,6-diazabicyclo-[3.1.1]heptan-3-yl)-1-methyl-1H-indazol-3-yl)dihydropyrimidine-2,4(1H,3H)-dione] | 500 to 2500 nM | –
9 | Cn1nc(N2CCC(=O)NC2=O)c2ccc(N3CCN(CC4CCN(c5cccc(S(=O)(=O)N6CCC(Nc7ncc(Cl)cn7)CC6)c5)CC4)CC3)cc21 [Example 52, 1-(6-(4-((1-(3-((4-((5-chloropyrimidin-2-yl)amino)piperidin-1-yl)sulfonyl)phenyl)-piperidin-4-yl)methyl)piperazin-1-yl)-1-methyl-1H-indazol-3-yl)dihydropyrimidine-2,4(1H,3H)-dione] | 500 to 2500 nM | –
10 | O=C1CCN(c2ccc(N3CCN(Cc4cccc(S(=O)(=O)N5CCC(Nc6ncc(C(F)(F)F)cn6)CC5)c4)CC3)cc2)C(=O)N1 [Example 82, 1-(4-(4-(3-((4-((5-(trifluoromethyl)-pyrimidin-2-yl)amino)piperidin-1-yl)sulfonyl)benzyl)piperazin-1-yl)phenyl) dihydropyrimidine-2,4(1H,3H)-dione] | 500 to 2500 nM | –
11 | O=C1CCC(N2Cc3cc(N4CCN(CC5CCN(c6cccc(S(=O)(=O)N7CCC(Nc8ncc(Cl)cn8)CC7)c6)CC5)CC4)c(F)cc3C2=O)C(=O)N1 (stereo not shown) [Example 103, 3-(5-(4-((1-(3-((4-((5-chloropyrimidin-2-yl)amino)piperidin-1-yl)sulfonyl)phenyl)-piperidin-4-yl)methyl)piperazin-1-yl)-6-fluoro-1-oxoisoindolin-2-yl)piperidine-2,6-dione] | 500 to 2500 nM | –

More lines, now with the values ahead:

Row | IC50 (CDK2 [1]) | DC50 (CDK2 [2]) | SMILES
12 | 1 to 100 nM | 10 to 100 nM | Cn1nc(N2CCC(=O)NC2=O)c2cc(F)c(C3CCN(Cc4cccc(S(=O)(=O)N5CCC(Nc6ncc(C(F)(F)F)cn6)CC5)c4)CC3)cc21 [Example 16, 1-(5-fluoro-1-methyl-6-(1-(3-((4-((5-(trifluoromethyl)pyrimidin-2-yl)amino)-piperidin-1-yl)sulfonyl)benzyl)piperidin-4-yl)-1H-indazol-3-yl)dihydropyrimidine-2,4(1H,3H)-dione]
13 | 1 to 100 nM | 1 to 10 nM | Cn1nc(N2CCC(=O)NC2=O)c2ccc(C3CCN(CC(C)(C)Cc4cccc(S(=O)(=O)N5CCC(Nc6ncc(Cl)cn6)CC5)c4)CC3)cc21 [Example 54, 1-(6-(1-(3-(3-((4-((5-chloropyrimidin-2-yl)amino)piperidin-1-yl)sulfonyl)phenyl)-2,2-dimethylpropyl)piperidin-4-yl)-1-methyl-1H-indazol-3-yl)dihydropyrimidine-2,4(1H,3H)-dione]
14 | 1 to 100 nM | 1 to 10 nM | Cn1nc(N2CCC(=O)NC2=O)c2ccc(C3CCN(CC4CCN(c5cccc(S(=O)(=O)N6CCC(Nc7ncc(C(F)(F)F)cn7)CC6)c5)CC4)CC3)cc21 [Example 40, 1-(1-methyl-6-(1-((1-(3-((4-((5-(trifluoro-methyl)pyrimidin-2-yl)amino)piperidin-1-yl)sulfonyl)phenyl)piperidin-4-yl)methyl)piperidin-4-yl)-1H-indazol-3-yl)dihydropyrimidine-2,4(1H,3H)-dione]
15 | 1 to 100 nM | 10 to 100 nM | Cn1nc(N2CCC(=O)NC2=O)c2ccc(C3CCN(Cc4cccc(S(=O)(=O)N5CCC(Nc6ncc(OC(F)F)cn6)CC5)c4)CC3)cc21 [Example 35, 1-(6-(1-(3-((4-((5-(difluoromethoxy)-pyrimidin-2-yl)amino)piperidin-1-yl)sulfonyl)benzyl)piperidin-4-yl)-1-methyl-1H-indazol-3-yl)dihydropyrimidine-2,4(1H,3H)-dione]
16 | 500 to 2500 nM | – | O=C1CCN(c2nn(CC(F)(F)F)c3cc(C4CCN(Cc5cccc(S(=O)(=O)N6CCC(Nc7ncc(Cl)cn7)CC6)c5)CC4)ccc23)C(=O)N1 [Example 21]
17 | 1 to 100 nM | – | Cn1nc(N2CCC(=O)NC2=O)c2ccc(C3CCN(Cc4ccc(S(=O)(=O)N5CCC(Nc6ncc(Cl)cn6)CC5)cc4)CC3)cc21 [Example 63, 1-(6-(1-(4-((4-((5-chloropyrimidin-2-yl)amino)piperidin-1-yl)sulfonyl)benzyl)-piperidin-4-yl)-1-methyl-1H-indazol-3-yl)dihydropyrimidine-2,4(1H,3H)-dione]
18 | 500 to 2500 nM | – | Cn1nc(N2CCC(=O)NC2=O)c2ccc(C3CN(Cc4cccc(S(=O)(=O)N5CCC(Nc6ncc(Cl)cn6)CC5)c4)C3)cc21 [Example 56, 1-(6-(1-(3-((4-((5-chloropyrimidin-2-yl)amino)piperidin-1-yl)sulfonyl)benzyl)-azetidin-3-yl)-1-methyl-1H-indazol-3-yl)dihydropyrimidine-2,4(1H,3H)-dione]
